# In patent US20070099828A1, “BIOMARKERS FOR THE EFFICACY OF CALCITONIN AND PARATHYROID HORMONE TREATMENT” (priority 2003, published 2007):
# “And” between values parts separate entries of the source, which are not always exact repeats. Equal entries are not always repeated. Ends that are not written are not given here.
# How the values were obtained:
# Haematology = format: in vivo, cynomolgus monkeys (Macaca fascicularis)
# From the text: (§1) Blood sampling. […] Blood samples were taken from a peripheral vein.
# [1] = Hormone determinations in serum; format: in vivo, cynomolgus monkeys (Macaca fascicularis); conditions: males
# From the text: as §1
# [2] = cynomolgus monkey, in vivo
# From the text: Animals. […] Solvent was used as vehicle for the control group.
# The animals used in this analysis were cynomolgus monkeys (Macaca fascicularis), supplied by Centre de Recherches Primatologiques, Port Louis, Mauritius. Two animals were used per group and sex. At the beginning of the treatment period, the animals were at least 24 months old, with a body weight of approximately 3 kg. Animals were kept under standard conditions for animal welfare. Animals were examined daily for mortality, food consumption and clinical observations. Body weight was recorded once per week.
# Blood pressure = format: in vivo, cynomolgus monkeys (Macaca fascicularis); conditions: for Blood Pressure Difference: Week 2 vs Week-1; for Blood Pressure Week-1: before dosing
# [3] = urine, females, day −8 (pre-dose)
sequence,measurement,setting,value
"SVSEIQLLHDKGKHLASQERVEWLRKKLQDVHTA [PTS893, Leu8, Asp10, Lys11, Ala16, Gln18, Thr33, Ala34 human PTH 1-34 [hPTH(1-34)]]",B,"Haematology; females, d 7",0.06 G/L and 0.04 G/L
same,L,"Haematology; females, d 7",6.29 G/L and 5.87 G/L
same,MCH,"Haematology; females, d 7",18.9 pg and 19 pg
same,MCV,"Haematology; females, d 7",67 fL and 68 fL
same,PCV,"Haematology; females, d 7",0.41 l/l and 0.43 l/l
same,PLAT,"Haematology; females, d 7",525 G/L and 382 G/L
same,RBC,"Haematology; females, d 7",6.2 T/l and 6.4 T/l
same,WBC,"Haematology; females, d 7",18.4 G/l and 12.3 G/l
same,B,"Haematology; females, d 13",0.03 G/L and 0.04 G/L
same,E,"Haematology; females, d 13",0.21 G/L and 0.29 G/L
same,HB,"Haematology; females, d 13",11.3 g/dL
same,L,"Haematology; females, d 13",5.81 G/L and 5.21 G/L
same,MCH,"Haematology; females, d 13",19.3 pg and 19.2 pg
same,MCV,"Haematology; females, d 13",67 fL and 66 fL
same,PCV,"Haematology; females, d 13",0.4 l/l and 0.39 l/l
same,PLAT,"Haematology; females, d 13",496 G/L and 309 G/L
same,RBC,"Haematology; females, d 13",5.9 T/l
same,WBC,"Haematology; females, d 13",13.2 G/l and 10.1 G/l
same,L,"Haematology; females, d −8 (before dosing)",3.92 G/L and 4.4 G/L
same,MCH,"Haematology; females, d −8 (before dosing)",19.3 pg
same,MCV,"Haematology; females, d −8 (before dosing)",63 fL and 64 fL
same,PCV,"Haematology; females, d −8 (before dosing)",0.44 l/l and 0.43 l/l
same,RBC,"Haematology; females, d −8 (before dosing)",6.9 T/l and 6.7 T/l
same,WBC,"Haematology; females, d −8 (before dosing)",10.1 G/l and 14.3 G/l
same,monocyte count,"Haematology; females, d −8 (before dosing)",0.8 G/l and 0.54 G/l
same,B,"Haematology; males, d 7",0.02 G/l and 0.03 G/l
same,HB,"Haematology; males, d 7",11.3 g/dL and 11.9 g/dL
same,L,"Haematology; males, d 7",5.91 G/l and 5.30 G/l
same,MCH,"Haematology; males, d 7",17.7 pg and 20.2 pg
same,MCHC,"Haematology; males, d 7",29.3 g/dL and 30.2 g/dL
same,MCV,"Haematology; males, d 7",60 fL and 67 fL
same,PCV,"Haematology; males, d 7",0.38 l/l and 0.40 l/l
same,PLAT,"Haematology; males, d 7",456 G/l and 589 G/l
same,RBC,"Haematology; males, d 7",6.4 T/l and 5.9 T/l
same,WBC,"Haematology; males, d 7",8.4 G/l and 15.0 G/l
same,B,"Haematology; males, d 13",0.04 G/l and 0.03 G/l
same,HB,"Haematology; males, d 13",11.7 g/dL and 11.8 g/dL
same,L,"Haematology; males, d 13",5.37 G/l and 4.86 G/l
same,M,"Haematology; males, d 13",0.27 G/l and 0.46 G/l
same,MCH,"Haematology; males, d 13",17.3 pg and 20.3 pg
same,MCHC,"Haematology; males, d 13",27.5 g/dL and 29.2 g/dL
same,MCV,"Haematology; males, d 13",63 fL and 70 fL
same,PCV,"Haematology; males, d 13",0.43 l/l and 0.41 l/l
same,PLAT,"Haematology; males, d 13",330 G/l and 452 G/l
same,RBC,"Haematology; males, d 13",6.8 T/l and 5.8 T/l
same,WBC,"Haematology; males, d 13",8.8 G/l and 11.9 G/l
same,HB,"Haematology; males, d −6 (before dosing)",13.6 g/dL and 13.2 g/dL
same,L,"Haematology; males, d −6 (before dosing)",5.07 G/l and 3.99 G/l
same,MCH,"Haematology; males, d −6 (before dosing)",18.0 pg and 20.4 pg
same,MCHC,"Haematology; males, d −6 (before dosing)",31.5 g/dL and 33.1 g/dL
same,MCV,"Haematology; males, d −6 (before dosing)",57 fL and 62 fL
same,PCV,"Haematology; males, d −6 (before dosing)",0.43 l/l and 0.40 l/l
same,PLAT,"Haematology; males, d −6 (before dosing)",325 G/l and 459 G/l
same,RBC,"Haematology; males, d −6 (before dosing)",7.6 T/l and 6.5 T/l
same,WBC,"Haematology; males, d −6 (before dosing)",10.4 G/l and 9.1 G/l
same,ACTH,[1]; day 7,101 pg/mL and 88 pg/mL
same,ALDOST,[1]; day 7,380 pg/mL and 471 pg/mL
same,C-PEPTI,[1]; day 7,2.90 ng/mL and 4.40 ng/mL
same,CORTISOL,[1]; day 7,1156 nmol/L and 1432 nmol/L
same,CT,[1]; day 7,4.0 pg/mL and 7.8 pg/mL
same,G.H.,[1]; day 7,15.8 ng/mL and 11.6 ng/mL
same,GASTRIN,[1]; day 7,84 pg/mL and 98 pg/mL
same,GLUCAG,[1]; day 7,656 pg/mL and 497 pg/mL
same,INSULIN,[1]; day 7,22.0 mU/l and 38.0 mU/l
same,IPH,[1]; day 7,96 pg/mL and 62 pg/mL
same,S.MED,[1]; day 7,749 ng/mL and 828 ng/mL
same,T3,[1]; day 7,3.47 nmol/L and 2.76 nmol/L
same,T4,[1]; day 7,90 nmol/L and 80 nmol/L
same,VD25-H,[1]; day 7,62 nmol/L
same,ACTH,[1]; day 13,83 pg/mL and 91 pg/mL
same,ALDOST,[1]; day 13,592 pg/mL and 651 pg/mL
same,C-PEPTI,[1]; day 13,2.10 ng/mL and 2.40 ng/mL
same,CORTISOL,[1]; day 13,1299 nmol/L and 1212 nmol/L
same,CT,[1]; day 13,4.6 pg/mL and 7.6 pg/mL
same,G.H.,[1]; day 13,12.1 ng/mL and 14.0 ng/mL
same,GASTRIN,[1]; day 13,78 pg/mL and 94 pg/mL
same,GLUCAG,[1]; day 13,786 pg/mL and 739 pg/mL
same,INSULIN,[1]; day 13,14.0 mU/l and 10.0 mU/l
same,IPH,[1]; day 13,78 pg/mL and 55 pg/mL
same,S.MED,[1]; day 13,914 ng/mL and 867 ng/mL
same,T3,[1]; day 13,3.55 nmol/L and 2.43 nmol/L
same,T4,[1]; day 13,68 nmol/L and 56 nmol/L
same,VD25-H,[1]; day 13,50 nmol/L
same,ALDOST,[1]; day −6 (pre-dose),265 pg/mL and 141 pg/mL
same,CORTISOL,[1]; day −6 (pre-dose),1662 nmol/L and 1506 nmol/L
same,CT,[1]; day −6 (pre-dose),6.1 pg/mL and 10.4 pg/mL
same,G.H.,[1]; day −6 (pre-dose),13.4 ng/mL and 8.5 ng/mL
same,GLUCAG,[1]; day −6 (pre-dose),858 pg/mL and 694 pg/mL
same,INSULIN,[1]; day −6 (pre-dose),16.0 mU/l and 12.0 mU/l
same,IPH,[1]; day −6 (pre-dose),123 pg/mL and 71 pg/mL
same,PROLACT,[1]; day −6 (pre-dose),7.1 ng/mL and 7.5 ng/mL
same,T3,[1]; day −6 (pre-dose),2.48 nmol/L and 1.38 nmol/L
same,T4,[1]; day −6 (pre-dose),84 nmol/L and 59 nmol/L
same,VD25-H,[1]; day −6 (pre-dose),77 nmol/L and 88 nmol/L
same,ACTH,[1]; day −6 relative to start of dosing (pre-dose),96 pg/mL and 115 pg/mL
same,"Food Consumption Avg., Both animals",[2],89.6
same,Blood Pressure Week 2,"Blood pressure; Female, first line per animal",70 mmHg and 87 mmHg
same,Blood Pressure Difference,"Blood pressure; Female, first line per animal",−22 mmHg and 9 mmHg
same,Blood Pressure Week-1,"Blood pressure; Female, first line per animal",92 mmHg and 78 mmHg
same,Blood Pressure Week 2,"Blood pressure; Female, second line per animal",42 mmHg and 28 mmHg
same,Blood Pressure Difference,"Blood pressure; Female, second line per animal",−1 mmHg and 4 mmHg
same,Blood Pressure Week-1,"Blood pressure; Female, second line per animal",43 mmHg and 24 mmHg
same,Blood Pressure Week 2,"Blood pressure; Male, first line per animal",87 mmHg and 101 mmHg
same,Blood Pressure Difference,"Blood pressure; Male, first line per animal",11 mmHg and −5 mmHg
same,Blood Pressure Week-1,"Blood pressure; Male, first line per animal",76 mmHg and 106 mmHg
same,Blood Pressure Week 2,"Blood pressure; Male, second line per animal",22 mmHg and 33 mmHg
same,Blood Pressure Difference,"Blood pressure; Male, second line per animal",4 mmHg and −20 mmHg
same,Blood Pressure Week-1,"Blood pressure; Male, second line per animal",18 mmHg and 53 mmHg
same,Ca2+ (urine),"Urinary analysis; males, day 13",7.55 mmol/L and 13.10 mmol/L
same,I.PHOS (urine),"Urinary analysis; males, day 13",0.10 mmol/L and 0.17 mmol/L
same,K+ (urine),"Urinary analysis; males, day 13",107 mmol/L and 69 mmol/L
same,LDH (urine),"Urinary analysis; males, day 13",14.0 IU/L and 19.0 IU/L
same,Mg2+ (urine),"Urinary analysis; males, day 13",8.70 mmol/L and 5.25 mmol/L
same,NAG (urine),"Urinary analysis; males, day 13",2.9 IU/l and 2.6 IU/l
same,CREAT (urine),"Urinary analysis; males, day −5 (before dosing)",16160 µmol/L and 16120 µmol/L
same,CREAT (urine),"Urinary analysis; males, day −6 (before dosing)",16160 µmol/L and 9940 µmol/L
same,Ca2+ (urine),"Urinary analysis; males, day −6 (before dosing)",5.10 mmol/L and 3.50 mmol/L
same,K+ (urine),"Urinary analysis; males, day −6 (before dosing)",86 mmol/L and 125 mmol/L
same,LDH (urine),"Urinary analysis; males, day −6 (before dosing)",7.0 IU/L and 9.0 IU/L
same,CREAT,"Urinary analysis; urine, females, day 13",5620 µmol/L and 8060 µmol/L
same,Ca2+,"Urinary analysis; urine, females, day 13",20.05 mmol/L and 12.35 mmol/L
same,Cl−,"Urinary analysis; urine, females, day 13",101 mmol/L and 133 mmol/L
same,LDH,"Urinary analysis; urine, females, day 13",10.0 IU/L and 9.0 IU/L
same,Mg2+,"Urinary analysis; urine, females, day 13",6.90 mmol/L and 5.90 mmol/L
same,VOLUME,"Urinary analysis; urine, females, day 13 of dosing",52 mL and 42 mL
same,CREAT,Urinary analysis; [3],19160 µmol/L and 14060 µmol/L
same,Ca2+,Urinary analysis; [3],11.50 mmol/L and 6.60 mmol/L
same,K+,Urinary analysis; [3],302 mmol/L and 164 mmol/L
same,LDH,Urinary analysis; [3],11.0 IU/L and 18.0 IU/L
same,Mg2+,Urinary analysis; [3],7.35 mmol/L and 4.00 mmol/L
same,Na+,Urinary analysis; [3],145 mmol/L and 118 mmol/L
